System: 945468-187-T-J2-PDC spheroids viability
Assay: Anticancer human tumor 945468-187-T-J2-PDC patient-derived rectal carcinoma cell line growth inhibition [PI3K]
Conditions: spheroids with HUVEC and MSC; for IC50: curve of first compound; for viability, T/C: stronger effect = lower value
Method in brief: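 Tumor cells were combined with HUVEC and MSCs into spheroids, then dosed with PI3K-inhibitor combinations over half-log ranges capped near clinical Cmax or 10 microM.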

[1] = second compound 0.0316 µM, first compound 0.0316 µM
[2] = second compound 0.0316 µM, first compound 0.1 µM
[3] = second compound 0.0316 µM, first compound 0.316 µM
[4] = second compound 0.0316 µM, first compound 1 µM
[5] = second compound 0.1 µM, first compound 0.0316 µM
[6] = second compound 0.1 µM, first compound 0.1 µM
[7] = second compound 0.1 µM, first compound 0.316 µM
[8] = second compound 0.1 µM, first compound 1 µM
[9] = second compound 0.316 µM, first compound 0.0316 µM
[10] = second compound 0.316 µM, first compound 0.1 µM
[11] = second compound 0.316 µM, first compound 0.316 µM
[12] = second compound 0.316 µM, first compound 1 µM
[13] = second compound 1 µM, first compound 0.0316 µM
[14] = second compound 1 µM, first compound 0.1 µM
[15] = second compound 1 µM, first compound 0.316 µM
[16] = second compound 1 µM, first compound 1 µM
[17] = second compound 3.16 µM, first compound 0.0316 µM
[18] = second compound 3.16 µM, first compound 0.1 µM
[19] = second compound 3.16 µM, first compound 0.316 µM
[20] = second compound 3.16 µM, first compound 1 µM
[21] = second compound 10 µM, first compound 0.0316 µM
[22] = second compound 10 µM, first compound 0.1 µM
[23] = second compound 10 µM, first compound 0.316 µM
[24] = second compound 10 µM, first compound 1 µM
[25] = second compound 0.0316 µM, first compound 3.16 µM
[26] = second compound 0.0316 µM, first compound 10 µM
[27] = second compound 0.1 µM, first compound 3.16 µM
[28] = second compound 0.1 µM, first compound 10 µM
[29] = second compound 0.316 µM, first compound 3.16 µM
[30] = second compound 0.316 µM, first compound 10 µM
[31] = second compound 1 µM, first compound 3.16 µM
[32] = second compound 1 µM, first compound 10 µM
[33] = second compound 3.16 µM, first compound 3.16 µM
[34] = second compound 3.16 µM, first compound 10 µM
[35] = second compound 10 µM, first compound 3.16 µM
[36] = second compound 10 µM, first compound 10 µM
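Further: spheroids exposed to compounds for seven days before reading.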

`CCN1CCN(Cc2ccc(Nc3ncc(F)c(-c4cc(F)c5nc(C)n(C(C)C)c5c4)n3)nc2)CC1` + CC(Nc1ncnc2nc[nH]c12)c1cc2cccc(Cl)c2c(=O)n1-c1ccccc1 showed an IC50 (second compound 0.0316 µM) of over 1 µM, an IC50 (second compound 0.1 µM) of over 1 µM and an IC50 (second compound 0.316 µM) of over 1 µM. The IC50 (second compound 1 µM) was over 1 µM, the IC50 (second compound 3.16 µM) was over 1 µM and the IC50 (second compound 10 µM) was over 1 µM. The viability, T/C (second compound 0.0316 µM, first compound 0.00316 µM) was 91.3%, the viability, T/C (second compound 0.0316 µM, first compound 0.01 µM) was 103% and the viability, T/C [1] was 98.8%. For the same compound, the viability, T/C [2] was 92.9%, the viability, T/C [3] was 100% and the viability, T/C [4] was 79.7%. For the same compound, the viability, T/C (second compound 0.1 µM, first compound 0.00316 µM) was 93.5%, the viability, T/C (second compound 0.1 µM, first compound 0.01 µM) was 122% and the viability, T/C [5] was 118%. It also gave a viability, T/C [6] of 89.5%, a viability, T/C [7] of 84.2% and a viability, T/C [8] of 71.6%. For the same compound, the viability, T/C (second compound 0.316 µM, first compound 0.00316 µM) was 83.9%, the viability, T/C (second compound 0.316 µM, first compound 0.01 µM) was 76.9% and the viability, T/C [9] was 86%. It also gave a viability, T/C [10] of 84.1%, a viability, T/C [11] of 95.8% and a viability, T/C [12] of 67%. It also gave a viability, T/C (second compound 1 µM, first compound 0.00316 µM) of 120%, a viability, T/C (second compound 1 µM, first compound 0.01 µM) of 98% and a viability, T/C [13] of 85.4%. The viability, T/C [14] was 87.8%, the viability, T/C [15] was 88.7% and the viability, T/C [16] was 74.2%. It also gave a viability, T/C (second compound 3.16 µM, first compound 0.00316 µM) of 90.8%, a viability, T/C (second compound 3.16 µM, first compound 0.01 µM) of 98.8% and a viability, T/C [17] of 94.2%. The viability, T/C [18] was 87.2%, the viability, T/C [19] was 77.8% and the viability, T/C [20] was 59.5%. It also gave a viability, T/C (second compound 10 µM, first compound 0.00316 µM) of 81.5%, a viability, T/C (second compound 10 µM, first compound 0.01 µM) of 76.4% and a viability, T/C [21] of 104%. The viability, T/C [22] was 98.8%, the viability, T/C [23] was 95% and the viability, T/C [24] was 53.6%.
In the case of `Cn1ncc(Cl)c1-c1cc(C(=O)NC(CN)Cc2cccc(F)c2)sc1Cl` (stereo unspecified) + CC(Nc1ncnc2nc[nH]c12)c1cc2cccc(Cl)c2c(=O)n1-c1ccccc1, the IC50 (second compound 0.0316 µM) is reported as over 10 µM, the IC50 (second compound 0.1 µM) is reported as over 10 µM and the IC50 (second compound 0.316 µM) is reported as over 10 µM. The IC50 (second compound 1 µM) was over 10 µM, the IC50 (second compound 3.16 µM) was over 10 µM and the IC50 (second compound 10 µM) was over 10 µM. The viability, T/C [1] was 97.5%, the viability, T/C [2] was 89.3% and the viability, T/C [3] was 96.3%. The viability, T/C [4] was 91.5%, the viability, T/C [25] was 83.9% and the viability, T/C [26] was 59.2%. For the same compound, the viability, T/C [5] was 91.1%, the viability, T/C [6] was 93.3% and the viability, T/C [7] was 129%. For the same compound, the viability, T/C [8] was 91.7%, the viability, T/C [27] was 93.2% and the viability, T/C [28] was 59.8%. For the same compound, the viability, T/C [9] was 90.6%, the viability, T/C [10] was 122% and the viability, T/C [11] was 104%. For the same compound, the viability, T/C [12] was 105%, the viability, T/C [29] was 84.2% and the viability, T/C [30] was 65.5%. For the same compound, the viability, T/C [13] was 99%, the viability, T/C [14] was 115% and the viability, T/C [15] was 106%. It also gave a viability, T/C [16] of 98.1%, a viability, T/C [31] of 77.8% and a viability, T/C [32] of 73.3%. For the same compound, the viability, T/C [17] was 83.3%, the viability, T/C [18] was 103% and the viability, T/C [19] was 92.5%. For the same compound, the viability, T/C [20] was 71%, the viability, T/C [33] was 81.8% and the viability, T/C [34] was 61%. For the same compound, the viability, T/C [21] was 99.6%, the viability, T/C [22] was 99.6% and the viability, T/C [23] was 90.6%. The viability, T/C [24] was 94.2%, the viability, T/C [35] was 74.4% and the viability, T/C [36] was 70.1%.
With `Cn1nccc1Nc1nccc(-c2ccn(C(CO)c3ccc(Cl)c(F)c3)c(=O)c2)n1` (stereo unspecified) + CC(Nc1ncnc2nc[nH]c12)c1cc2cccc(Cl)c2c(=O)n1-c1ccccc1 the IC50 (second compound 0.0316 µM) was over 10 µM, the IC50 (second compound 0.1 µM) was over 10 µM and the IC50 (second compound 0.316 µM) was over 10 µM. It also gave an IC50 (second compound 1 µM) of over 10 µM, an IC50 (second compound 3.16 µM) of over 10 µM and an IC50 (second compound 10 µM) of over 10 µM. It also gave a viability, T/C [1] of 107%, a viability, T/C [2] of 91.4% and a viability, T/C [3] of 92%. For the same compound, the viability, T/C [4] was 115%, the viability, T/C [25] was 101% and the viability, T/C [26] was 78.5%. It also gave a viability, T/C [5] of 76.1%, a viability, T/C [6] of 86.5% and a viability, T/C [7] of 102%. It also gave a viability, T/C [8] of 120%, a viability, T/C [27] of 101% and a viability, T/C [28] of 72.7%. It also gave a viability, T/C [9] of 95.2%, a viability, T/C [10] of 85.6% and a viability, T/C [11] of 83.1%. The viability, T/C [12] was 98.7%, the viability, T/C [29] was 84.2% and the viability, T/C [30] was 71.1%. For the same compound, the viability, T/C [13] was 99.3%, the viability, T/C [14] was 100% and the viability, T/C [15] was 89.4%. It also gave a viability, T/C [16] of 103%, a viability, T/C [31] of 96.2% and a viability, T/C [32] of 75.7%. The viability, T/C [17] was 88.2%, the viability, T/C [18] was 80.8% and the viability, T/C [19] was 83.6%. The viability, T/C [20] was 125%, the viability, T/C [33] was 140% and the viability, T/C [34] was 68.4%. It also gave a viability, T/C [21] of 135%, a viability, T/C [22] of 115% and a viability, T/C [23] of 109%. For the same compound, the viability, T/C [24] was 110%, the viability, T/C [35] was 91.9% and the viability, T/C [36] was 70.5%.

From PubChem BioAssay AID1963972 (Molecular Pharmacology Branch, DTP, NCI, 2024)
